Measured values from ChEMBL document CHEMBL5465560, “Selectivity Literature for EUbOPEN Chemogenomic Library” (2024).

How the values were obtained:
[1] = biological target: RAC-beta serine/threonine-protein kinase (Homo sapiens) (UniProt P31751); settings: at 10 µM
[2] = biological target: Serine/threonine-protein kinase N2 (Homo sapiens, UniProt Q16513); test: Selectivity interaction (Kinase screening (Upstate/Millipore)) EUB0000604a PKN2
[3] = tested on: T1, Receptor-type tyrosine-protein kinase FLT3 (Homo sapiens), P36888 [N841I]; test: Selectivity interaction (Ambit KINOMEscan and KiNATiv profiling in Jurkat cells) EUB0000090b FLT3; assay type: cell-based; settings: at 1 µM
T1 sequence (whole entry): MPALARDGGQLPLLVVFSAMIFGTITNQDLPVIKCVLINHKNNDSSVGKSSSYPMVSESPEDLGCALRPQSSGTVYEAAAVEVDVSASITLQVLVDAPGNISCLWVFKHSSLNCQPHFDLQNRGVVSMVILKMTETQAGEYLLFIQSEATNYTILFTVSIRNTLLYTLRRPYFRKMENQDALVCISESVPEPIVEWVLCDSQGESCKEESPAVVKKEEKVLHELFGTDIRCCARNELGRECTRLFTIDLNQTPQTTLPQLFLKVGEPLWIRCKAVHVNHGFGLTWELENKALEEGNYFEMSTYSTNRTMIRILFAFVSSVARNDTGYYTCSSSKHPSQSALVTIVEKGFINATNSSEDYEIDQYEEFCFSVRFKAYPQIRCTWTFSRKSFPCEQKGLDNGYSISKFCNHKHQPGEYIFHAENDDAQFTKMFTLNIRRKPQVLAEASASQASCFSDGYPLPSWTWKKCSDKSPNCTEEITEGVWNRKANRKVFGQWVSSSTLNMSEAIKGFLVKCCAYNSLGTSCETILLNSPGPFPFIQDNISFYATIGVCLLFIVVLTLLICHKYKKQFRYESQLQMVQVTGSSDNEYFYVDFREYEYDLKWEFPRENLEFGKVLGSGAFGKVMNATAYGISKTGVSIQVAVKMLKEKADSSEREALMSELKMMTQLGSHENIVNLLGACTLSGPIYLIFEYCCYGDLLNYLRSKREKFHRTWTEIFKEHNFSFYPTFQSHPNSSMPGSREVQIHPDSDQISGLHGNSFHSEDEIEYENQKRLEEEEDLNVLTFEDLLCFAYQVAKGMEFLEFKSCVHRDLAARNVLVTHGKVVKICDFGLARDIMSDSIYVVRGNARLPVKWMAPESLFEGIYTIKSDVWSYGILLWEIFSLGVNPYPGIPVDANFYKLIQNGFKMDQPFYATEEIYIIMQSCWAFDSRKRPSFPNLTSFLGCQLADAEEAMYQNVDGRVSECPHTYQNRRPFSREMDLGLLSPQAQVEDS

[4] = biological target: Serine/threonine-protein kinase PLK3 (Homo sapiens, UniProt Q9H4B4); test: Selectivity interaction (KinomeScan (DiscoverX)) EUB0000655a PLK3; settings: at 10 µM
Sequence of Serine/threonine-protein kinase PLK3 (Q9H4B4 whole entry, looked up): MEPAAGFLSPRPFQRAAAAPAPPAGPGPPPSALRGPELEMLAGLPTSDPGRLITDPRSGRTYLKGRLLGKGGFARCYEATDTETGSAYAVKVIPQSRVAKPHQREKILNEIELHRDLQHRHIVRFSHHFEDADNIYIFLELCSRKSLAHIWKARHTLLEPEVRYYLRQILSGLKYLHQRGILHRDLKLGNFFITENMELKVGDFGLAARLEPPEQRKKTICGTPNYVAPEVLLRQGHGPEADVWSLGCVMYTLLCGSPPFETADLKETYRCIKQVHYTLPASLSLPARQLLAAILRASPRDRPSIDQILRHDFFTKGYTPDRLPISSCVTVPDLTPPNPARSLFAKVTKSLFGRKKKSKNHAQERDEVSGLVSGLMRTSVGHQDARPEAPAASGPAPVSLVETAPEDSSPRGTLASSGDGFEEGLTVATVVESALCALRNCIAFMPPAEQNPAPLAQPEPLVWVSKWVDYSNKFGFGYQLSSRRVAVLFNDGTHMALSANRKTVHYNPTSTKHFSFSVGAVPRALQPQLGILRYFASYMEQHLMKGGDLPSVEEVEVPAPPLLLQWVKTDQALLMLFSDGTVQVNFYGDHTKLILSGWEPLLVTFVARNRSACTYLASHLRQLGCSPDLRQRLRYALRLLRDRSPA

[5] = biological target: T2, Mitogen-activated protein kinase kinase kinase 5 (Homo sapiens) (UniProt Q99683); test: Selectivity interaction (KinomeScan (DiscoverX)) EUB0000666a MAP3K5; settings: at 10 µM
T2 sequence (whole entry): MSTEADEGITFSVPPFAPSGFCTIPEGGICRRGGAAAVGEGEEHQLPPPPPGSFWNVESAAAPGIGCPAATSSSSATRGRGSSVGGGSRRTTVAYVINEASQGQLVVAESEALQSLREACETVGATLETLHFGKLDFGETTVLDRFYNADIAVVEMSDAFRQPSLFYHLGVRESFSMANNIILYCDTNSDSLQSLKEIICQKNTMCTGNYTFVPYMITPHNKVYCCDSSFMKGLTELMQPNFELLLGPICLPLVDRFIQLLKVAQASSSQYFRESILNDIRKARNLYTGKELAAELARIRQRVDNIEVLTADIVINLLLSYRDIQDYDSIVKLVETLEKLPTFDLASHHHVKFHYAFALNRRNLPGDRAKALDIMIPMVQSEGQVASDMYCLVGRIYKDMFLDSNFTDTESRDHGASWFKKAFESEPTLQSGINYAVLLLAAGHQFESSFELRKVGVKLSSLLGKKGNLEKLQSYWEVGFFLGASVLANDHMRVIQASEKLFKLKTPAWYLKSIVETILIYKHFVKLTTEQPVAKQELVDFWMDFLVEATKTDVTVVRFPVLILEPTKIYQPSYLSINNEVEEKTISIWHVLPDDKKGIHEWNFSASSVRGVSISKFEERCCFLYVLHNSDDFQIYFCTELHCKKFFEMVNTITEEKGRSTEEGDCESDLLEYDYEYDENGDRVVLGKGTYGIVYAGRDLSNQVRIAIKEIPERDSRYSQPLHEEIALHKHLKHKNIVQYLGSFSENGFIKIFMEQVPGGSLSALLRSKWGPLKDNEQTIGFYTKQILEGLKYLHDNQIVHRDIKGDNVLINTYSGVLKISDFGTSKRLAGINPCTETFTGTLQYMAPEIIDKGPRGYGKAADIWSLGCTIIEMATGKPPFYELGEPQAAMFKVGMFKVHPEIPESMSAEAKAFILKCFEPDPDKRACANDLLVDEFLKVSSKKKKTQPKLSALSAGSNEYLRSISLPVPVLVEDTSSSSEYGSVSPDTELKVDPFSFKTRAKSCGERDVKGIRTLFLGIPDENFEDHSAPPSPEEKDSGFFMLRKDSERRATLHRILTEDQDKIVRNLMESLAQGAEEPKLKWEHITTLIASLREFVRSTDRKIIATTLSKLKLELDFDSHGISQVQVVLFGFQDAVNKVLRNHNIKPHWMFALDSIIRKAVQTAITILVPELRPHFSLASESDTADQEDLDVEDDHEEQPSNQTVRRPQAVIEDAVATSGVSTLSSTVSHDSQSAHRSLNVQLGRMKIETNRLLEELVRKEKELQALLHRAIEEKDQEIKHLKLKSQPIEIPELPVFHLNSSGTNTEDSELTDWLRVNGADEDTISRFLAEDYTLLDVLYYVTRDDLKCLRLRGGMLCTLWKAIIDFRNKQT

Sequence of Serine/threonine-protein kinase N2 (Q16513 whole entry, looked up): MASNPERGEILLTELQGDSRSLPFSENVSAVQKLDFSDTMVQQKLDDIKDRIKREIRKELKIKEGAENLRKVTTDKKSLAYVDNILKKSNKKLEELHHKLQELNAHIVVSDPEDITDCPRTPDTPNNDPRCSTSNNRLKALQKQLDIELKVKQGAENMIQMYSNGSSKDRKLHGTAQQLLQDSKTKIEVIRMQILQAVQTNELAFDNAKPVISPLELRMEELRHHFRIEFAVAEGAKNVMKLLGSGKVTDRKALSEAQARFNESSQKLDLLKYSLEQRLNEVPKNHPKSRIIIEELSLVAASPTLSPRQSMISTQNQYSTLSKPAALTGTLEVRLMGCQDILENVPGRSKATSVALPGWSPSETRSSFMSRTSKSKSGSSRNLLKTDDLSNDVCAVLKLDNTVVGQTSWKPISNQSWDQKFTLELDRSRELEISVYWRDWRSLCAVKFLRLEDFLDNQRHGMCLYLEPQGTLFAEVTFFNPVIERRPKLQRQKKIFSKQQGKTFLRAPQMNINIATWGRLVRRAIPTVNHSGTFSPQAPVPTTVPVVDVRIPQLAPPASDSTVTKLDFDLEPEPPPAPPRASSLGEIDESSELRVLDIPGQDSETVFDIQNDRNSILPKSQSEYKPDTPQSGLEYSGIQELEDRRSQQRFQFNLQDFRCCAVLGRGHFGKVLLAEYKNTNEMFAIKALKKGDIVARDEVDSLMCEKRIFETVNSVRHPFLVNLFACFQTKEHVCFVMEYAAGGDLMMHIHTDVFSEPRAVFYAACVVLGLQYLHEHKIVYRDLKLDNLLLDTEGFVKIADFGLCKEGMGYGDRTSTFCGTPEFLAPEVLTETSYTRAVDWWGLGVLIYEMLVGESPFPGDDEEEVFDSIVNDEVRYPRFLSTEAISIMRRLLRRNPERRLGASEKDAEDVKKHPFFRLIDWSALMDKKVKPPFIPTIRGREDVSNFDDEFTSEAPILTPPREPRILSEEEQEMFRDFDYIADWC
Sequence of RAC-beta serine/threonine-protein kinase (Homo sapiens) (P31751 whole entry): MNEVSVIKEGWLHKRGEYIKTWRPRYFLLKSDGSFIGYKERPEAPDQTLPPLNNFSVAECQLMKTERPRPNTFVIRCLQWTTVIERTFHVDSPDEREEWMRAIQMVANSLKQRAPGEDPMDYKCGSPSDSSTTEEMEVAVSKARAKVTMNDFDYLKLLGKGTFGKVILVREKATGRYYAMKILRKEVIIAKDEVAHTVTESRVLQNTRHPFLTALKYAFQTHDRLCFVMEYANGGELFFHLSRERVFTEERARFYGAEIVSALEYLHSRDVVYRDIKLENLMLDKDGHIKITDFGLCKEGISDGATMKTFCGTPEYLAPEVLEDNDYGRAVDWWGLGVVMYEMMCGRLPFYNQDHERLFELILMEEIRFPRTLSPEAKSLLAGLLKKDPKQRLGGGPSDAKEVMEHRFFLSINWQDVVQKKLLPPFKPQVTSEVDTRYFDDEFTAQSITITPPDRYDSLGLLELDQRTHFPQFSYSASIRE

Cc1cc([C@@H](C)Nc2ccccc2C(=O)O)c2nc(N3CCOCC3)cc(=O)n2c1 [AZD-6482]
% of control [1]: 86%

Cc1cnc(Nc2ccc(F)cc2Cl)nc1-c1c[nH]c(C(=O)N[C@H](CO)c2cccc(Cl)c2)c1
% of inhibition [2]: 14%

CN(C)C/C=C/C(=O)Nc1ccc(C(=O)N2CCCC(Nc3ncc(Cl)c(-c4c[nH]c5ccccc45)n3)C2)cc1 (stereo not given)
% of control [3]: 89%

CN(C)CCOc1ccc(-c2nc(-c3ccncc3)c(-c3ccc4c(c3)CC/C4=N\O)[nH]2)cc1
% of control [4]: 94%

O=C(NOC[C@H](O)CO)c1ccc(F)c(F)c1Nc1ccc(I)cc1F
% of control [5]: 91%
